For series [1], the system named is Alr1666 (PatP). Description: LC-MS/MS identification of Alr1666-generated non-tryptic PatX peptides. The format is biochemical, Nostoc PCC 7120. The following applies: LC-MS/MS of excised 18–25 kDa gel region; three experimental replicates; with vs without Alr1666-V5. An excerpt: Figure 5 Ex vivo cleavage assay of TrxA-PatXΔSS-MBP by the putative peptidase Alr1666 (A) Schematic of the TrxA-PatXΔSS-MBP fusion protein construct, shown before and after potential cleavage by Alr1666. (B) Immunoblot analysis of cleavage assays. Expression of trxA-patXΔSS-malE was induced with IPTG; expression of alr1666-V5 was induced with arabinose. The blot was probed with anti-TrxA antibodies (top panel) to detect the full-length TrxA-PatXΔSS-MBP fusion and any TrxA-PatX cleavage product, and with anti-V5 antibodies (bottom panel) to confirm Alr1666-V5 production. Lanes: 1, no inducer (negative control); 2, IPTG for 3 h; 3, IPTG for 1 h; 4, co-induction with IPTG and arabinose for 3 h; 5, sequential induction (IPTG for 1 h, then arabinose for 3 h). (C) Liquid chromatography-tandem mass spectrometry analysis of peptides from excised gel bands (see Figure S6A). […] Trx-PatXΔSS-MBP + Alr1666-V5: Experimental assay with Alr1666-V5. ∗0 values: No non-tryptic peptides were detected in control samples. […]
The 18–25 kDa region was excised to identify PatX-cleavage peptides by mass spectrometry (Figure S6A). Because higher molecular-weight bands smear downward during SDS-PAGE, the excised slice also contains proteins from those upper regions, and they will be detected as well. […] They were uniquely detected in Alr1666-expressing samples ([…]). […]

Series [2] relates to HetR / hetP promoter. Description: EMSA of HetR with the hetP promoter. The format is biochemical, Nostoc PCC 7120. As to conditions: HetR 1 μM, hetP promoter 50 nM (6-FAM), peptide 1 μM, pH 8, 4°C, 30 minutes, one representative result. On the procedure: Heterocysts are indicated by white arrows. Time denotes hours post combined nitrogen starvation. Scale bars, 30 μm. […] Sector 1: wild-type. Sector 2: malE mutant. […] Red color indicates MBP periplasmic export.
The hetP gene promoter (alr2818) was amplified by PCR using PhetP fw and PhetP rv primers, with the forward primer labeled at the 5′ end with 6-FAM. Purified HetR protein (as previously described),[3] was incubated with the hetP promoter (50 nM) in a buffer containing 10 mM Tris (pH 8), 150 mM KCl, 500 nM EDTA, 0.1% Triton X-100, 12.5% glycerol, 1 mM DTT, and 1 μg DiDC competitor at 4°C in the dark for 30 minutes. Electrophoresis was conducted at 250 V for 60 minutes, and DNA was visualized using the Typhoon FLA 9500.
(A gel shift assay detects complexes by their altered migration in electrophoresis.)

The subject of series [3] is Nostoc heterocyst differentiation. As to conditions: cited from earlier work.
The target in series [4] is T1, HetR (Nostoc sp., UniProt P27709).
T1 construct: made in house
T1 sequence (P27709 1-299): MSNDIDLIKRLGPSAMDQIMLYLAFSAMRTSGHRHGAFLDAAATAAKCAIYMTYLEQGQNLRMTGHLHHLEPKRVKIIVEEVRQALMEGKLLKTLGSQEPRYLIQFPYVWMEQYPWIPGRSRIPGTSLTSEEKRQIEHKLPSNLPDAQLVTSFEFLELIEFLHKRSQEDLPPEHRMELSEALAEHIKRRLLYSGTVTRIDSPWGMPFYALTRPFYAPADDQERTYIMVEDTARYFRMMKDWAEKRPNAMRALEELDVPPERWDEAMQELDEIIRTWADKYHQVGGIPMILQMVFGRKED
The following applies: cited from earlier work. An excerpt:
Heterocyst differentiation involves four stages—induction, pattern formation, commitment, and morphogenesis—regulated by signaling cascades involving the master transcriptional regulator HetR.[10] Nitrogen starvation triggers 2-oxoglutarate (2-OG) accumulation, activating NtcA to upregulate hetR.[11]^,[12] Deletion of hetR prevents differentiation, while its overexpression induces contiguous heterocysts formation even under non-permissive conditions.[10] HetR initiates a negative feedback loop by activating patS expression.[13] The resulting 17-amino-acid product is processed into the signalin ...

In series [5] the test system is Nostoc PCC 7120 heterocyst differentiation. As to conditions: cited from earlier work. An excerpt: While hetR is conserved across heterocyst-forming cyanobacteria, patS and hetN are not,[23] implying the existence of additional inhibitory factors. Recently, PatX, containing the HRGTGR hexapeptide, was identified as coextensive with HetR in filamentous cyanobacteria.[23]

Series [6] concerns the target T2, HetR (Nostoc PCC 7120) (UniProt P27709).
T2 sequence: T1 sequence (P27709 1-299)
Description: EMSA. The following applies: EMSA: 10 mM Tris pH 8, 150 mM KCl, 500 nM EDTA, 0.1% Triton X-100, 12.5% glycerol, 1 mM DTT, 1 ug DiDC competitor (so in the source), 50 nM DNA, 4 C, 30 min in the ….

In series [7] the target is T3, HetR (Nostoc PCC 7120, UniProt P27709 1-299).
T3 construct: HetR, master transcriptional regulator of heterocyst differentiation, Nostoc/Anabaena PCC 7120; purified protein used in ITC and EMSA; also called master transcriptional regulator HetR; source: purified (as previously described)
T3 sequence (looked up): T1 sequence (P27709 1-299)
Description: ITC; PatX6 (200 μM, syringe) titrated into HetR (22 μM, cell), 25°C, PBS pH 7.4, one-site binding model, MicroCal PEAQ-ITC. The following applies: both partners purified.

As to “AFSPSNSQNMISLK [non-tryptic PatX cleavage peptide flanking HRGTGR, detected by mass spectrometry]”, the “detection of non-tryptic cleavage peptide” value in series [1] is recorded as “exclusively present in peptidase-producing strains”.

Turning to “ERGSGR [PatS6, signaling peptide PatS6 (ERGSGR), positive control in EMSA]”, the “effect on HetR-hetP promoter interaction” value in series [2] is recorded as “abolished this interaction”. Further, in series [3], the “effect of exogenous peptide on differentiation” value is “suppress differentiation”. Moreover, the “binding to HetR and effect on its DNA-binding function” value in series [4] is given as “binds to HetR to inhibit its DNA-binding function”.

In the case of “GPDIIFWAHDR [non-tryptic PatX cleavage peptide flanking HRGTGR, detected by mass spectrometry]”, in series [1], the “detection of non-tryptic cleavage peptide” value is given as “exclusively present in peptidase-producing strains”.

On to “PatS: 17-amino-acid product of patS, processed into PatS5 or PatS6 (MKAIMLVNFCDERGSGR; UniProt O52748 1-17, looked up)”, for which the “effect of overexpression on heterocyst differentiation” value in series [5] is given as “inhibits heterocyst differentiation”.

Turning to “RGSGR [PatS5, signaling peptide PatS5 (RGSGR)]”, the “effect of exogenous peptide on differentiation” value in series [3] was “suppress differentiation”. Moreover, in series [4], the “binding to HetR and effect on its DNA-binding function” value was “binds to HetR to inhibit its DNA-binding function”.

With “TGAGTTATACGCTATATCAATGGGGATTTTGAGCATTTTCTACTAGGTAATGAGGGGTTAGACCCCTCGCCTACTGTGCATTTGAGACTTTAAACCTACTAAGAGAATTTACCACTAAAT (double strand) [hetP promoter PCR fragment]”, the binding result in series [6] is recorded as “binds”.

B1: PatX-6 peptide (HRGTGR) (peptide)
peptide: HRGTGR
notes: also called PatX6 hexapeptide; PatX-derived hexapeptide; source: synthetic peptide (Genecust)
In turn, B1 showed a Kd in series [7] of 88 nM.

B2: HetN: another inhibitor that maintains heterocyst patterning, containing the RGSGR pentapeptide (protein, UniProt P37694 1-287, looked up)
Ketoacyl reductase HetN: MTTLTGKTVLLTGASRGLGVYIARALAKEQATVVCVSRSQSGLAQTCNAVKAAGGKAIAIPFDVRNTSQLSALVQQAQDIVGPIDVLINNAGIEINGTFANYSLAEIQSIFNTNLLAAMELTRLLLPSMMERGSGRIVNIASLAGKKGVAFNSVYSASKAGLIMWTDAMRQELVGTGVNISVVCPGYVSQTGMTVDTRVSAPKLAGISTPKSVANAVVKAIKNKTTEVIVNQNPITESLTKLMLAVGQISPTSVDRIYRWFGVVDFNQKRAENRVKDGYVAVESHRS
On to B2, for which the “effect of overexpression on heterocyst differentiation” value in series [5] is given as “inhibits heterocyst differentiation”.

One may read the Kd as the equilibrium constant for the complex coming apart. The low end stands for tighter binding, the high end for weaker binding.

Source of the values: PMC12756182, “Co-option of an ancestral peptidase controls developmental patterning in multicellular cyanobacteria” (iScience, 2025).
